“Also recorded” adds a separate entry of the source.
Columns and labels:
male db/db mice [1] = assay: In vivo assay for reduction in blood glucose levels (Example 7, Compound 100B with or without sitagliptin); conditions: for reduction in plasma glucose from baseline: after 6 hours, oral
Protocol: Male db/db mice 8-9 weeks (approx 40 g) were fasted for 2 h. A combination of 1-[4-[4-[(4R,5R)-3,3-dibutyl-7-(dimethylamino)-2,3,4,5-tetrahydro-4-hydroxy-1,1-dioxido-1-benzothiepin-5-yl]phenoxy]butyl]4-aza-1-azoniabicyclo[2.2.2]octane methane sulfonate (Compound 100B) at doses of 0, 3, 30, 100 mg/kg in saline-water and 30 mg/kg sitagliptin (DPP-IV inhibitor) in a mixture of valine-pyrrolidine in water was administered orally to male db/db mice (n=6-11 per group). Blood sample (˜1 μl from tail for glucose level testing) was taken at t=−24 h, 0, 1, 3, 4, 5, 6 h and 24 h after administration.

male db/db mice [2] = assay: In vivo assay for reduction in blood glucose levels (Example 6, Compound 100A with or without sitagliptin); conditions: for reduction in plasma glucose from baseline: after 6 hours
Protocol: FIG. 1 illustrates the change in plasma glucose level in diabetic db/db mice after oral administration of a combination of the ASBTI (−)-(3R,5R)-trans-3-butyl-3-ethyl-2,3,4,5-tetrahydro-7,8-dimethoxy-5-phenyl-1,4-benzothiazepine1,1-dioxide at doses of 0, 0.1, 1, 10 mg/kg and 30 mg/kg sitagliptin (DPP-IV inhibitor) and the ASBTI alone.
FIG. 9 illustrates the change in body weight 24 h after administration of the ASBTI (−)-(3R,5R)-trans-3-butyl-3-ethyl-2,3,4,5-tetrahydro-7,8-dimethoxy-5-phenyl-1,4-benzothiazepine1,1-dioxide (100A) at doses of 0, 0.1, 1, 10 mg/kg in combination with 30 mg/kg sitagliptin (DPP-IV inhibitor) and the ASBTI alone.
Male db/db mice 6-7 weeks (approx 30 g) were fasted for 2 h. A combination of (−)-(3R,5R)-trans-3-butyl-3-ethyl-2,3,4,5-tetrahydro-7,8-dimethoxy-5-phenyl-1,4-benzothiazepine 1,1-dioxide (Compound 100A) at doses of 0, 0.1, 1, 10, mg/kg in 10% of DMSO-water and 30 mg/kg sitagliptin (DPP-IV inhibitor) in a mixture of valine-pyrrolidine in water was administered orally to male db/db mice (n=7-10 per group). Blood sample (˜1 μl from tail for glucose level testing) was taken at t=−24 h, 0, 60, 180, 240, 300, 360 min and 24 h after administration.

diabetic db/db mice [3] = assay: Plasma glucose in diabetic db/db mice after oral metformin plus sitagliptin (FIG. 3); type: in vivo; conditions: combination of metformin and sitagliptin
Protocol: FIG. 3 illustrates the change in plasma glucose level in diabetic db/db mice after oral administration of a combination of metformin at doses of 0, 3, 30, 100, 300 mg/kg and 30 mg/kg sitagliptin (DPP-IV inhibitor).

plasma GLP-1 level = assay: Plasma GLP-1 levels in normal rats after oral ASBTI or metformin with DPP-IV inhibitor (Example 8); type: in vivo; conditions: for plasma GLP-1 level, ASBTI in combination with sitagliptin: oral 3, 30, 100 mg/kg + 30 mg/kg sitagliptin; for plasma GLP-1 level, ASBTI in combination with sitagliptin / plasma GLP-1 level, ASBTI alone: 0-5 h; for plasma GLP-1 level, ASBTI alone: oral 3, 30, 100 mg/kg
Protocol: 12-week-old male HSD rats were fasted for 16 h and given oral dose of 0, 3, 30, 100 mg/kg of the ASBTI 1-[4-[4-[(4R,5R)-3,3-dibutyl-7-(dimethylamino)-2,3,4,5-tetrahydro-4-hydroxy-1,1-dioxido-1-benzothiepin-5-yl]phenoxy]butyl]4-aza-1-azoniabicyclo[2.2.2]octane methane sulfonate (Synthesized by Nanosyn Inc., CA, USA) or metformin (Control, 0, 3, 30, 100, 300 mg/kg) in saline and a dose of 30 mg/kg sitaglipin in a mixture of valine-pyrrolidine in water (n=5 per group). Blood samples in volume of 0.6 ml for each time point were taken from the caudal vein with a heparinized capillary tube 0, 1, 3 and 5 h after the administration of compounds and plasma GLP-1 level were determined. Aprotinin and 10 μl of DPP-IV inhibitor per ml of blood were used for blood sample preservation during 10 min centrifugation and for storage at −70° C. or below. GLP-1 (Active pM) was tested by Millipore ELISA Kits (Millipore Corporation, 290 Concord Road, Billerica, Mass.).

diabetic db/db mice [4] = assay: Oral Compound 100A/100B plus sitagliptin versus subcutaneous exenatide, blood glucose at 3 hours (Example 9); type: in vivo; conditions: FIG. 10
[5] = FIG. 6, 7, listed as 1-[4-[4-[(4R,5R)-3,3-dibutyl-7-(dimethylamino)-2,3,4,5-tetrahydro-4-hydroxy-1,1-

For `N[C@@H](CC(=O)N1CCn2c(nnc2C(F)(F)F)C1)Cc1cc(F)c(F)cc1F` [sitagliptin, (3R)-3-amino-1-[9-(trifluoromethyl)-1,4,7,8-tetrazabicyclo[4.3.0]nona-6,8-dien-4-yl]-4-(2,4,5-trifluorophenyl)butan-1-one, reference compound], the “reduction in plasma glucose from baseline” value (from here on “reduction in plasma glucose”) (male db/db mice [1]; 0 mg/kg ASBTI + 30 mg/kg sitagliptin) was 5.5% and the “reduction in plasma glucose” value (male db/db mice [2]; 0 mg/kg ASBTI + 30 mg/kg sitagliptin, oral) was 5.5%.

For `CN(C)C(=N)N=C(N)N` [metformin, reference compound], the “duration of reduced plasma glucose concentrations” value (diabetic db/db mice [3]) was “about 6 hours” and the “plasma GLP-1 level, metformin in combination with sitagliptin” value (plasma GLP-1 level; oral metformin 30, 100, 300 mg/kg + 30 mg/kg sitagliptin, FIG. 5) was “dose-dependent increase in plasma GLP-1 level; also recorded: elevation in GLP-1 levels in plasma”.

In the case of `CCCC[C@]1(CC)CS(=O)(=O)c2cc(OC)c(OC)cc2[C@@H](c2ccccc2)N1`, the “change in body weight” value (male db/db mice [2]; 24 h after administration, 0.1-10 mg/kg with 30 mg/kg sitagliptin and ASBTI alone, FIG. 9) is reported as “Weight loss”, the “plasma glucose concentrations, ASBTI alone” value (male db/db mice [2]; ASBTI alone, oral, FIG. 1) is reported as “lowers plasma glucose concentrations” and the “reduction in plasma glucose” value (male db/db mice [2]; 01 mg/kg (so in the source) + 30 mg/kg sitagliptin, oral) is reported as 5.6%. The “reduction in plasma glucose” value (male db/db mice [2]; 1 mg/kg + 30 mg/kg sitagliptin, oral) was 15%, the “reduction in plasma glucose” value (male db/db mice [2]; 10 mg/kg + 30 mg/kg sitagliptin, oral) was 42.3% and the “reduction of the elevated blood glucose levels” value (male db/db mice [2]; single oral administration, 0.1-10 mg/kg in combination with 30 mg/kg sitagliptin, compared to sitagliptin alone or vehicle, FIG. 1) was “dose-dependent reduction of the elevated blood glucose levels”.

For `CCCCC1(CCCC)CS(=O)(=O)c2ccc(N(C)C)cc2[C@@H](c2ccc(OCCCC[N+]34CCN(CC3)CC4)cc2)[C@H]1O.CS(=O)(=O)[O-]` [Compound 100B, 1-[4-[4-[(4R,5R)-3,3-dibutyl-7-(dimethylamino)-2,3,4,5-tetrahydro-4-hydroxy-1,1-dioxido-1-benzothiepin-5-yl]phenoxy]butyl]4-aza-1-azoniabicyclo[2.2.2]octane methane sulfonate salt], the “change in body weight” value (male db/db mice [1]; 24 h after administration, 3-100 mg/kg with 30 mg/kg sitagliptin, FIG. 8) was “Weight loss”, the “plasma glucose levels, ASBTI alone” value (male db/db mice [1]; ASBTI alone, 3, 30, 100 mg/kg oral, FIG. 4) was “lowers plasma glucose levels in dose dependent manner” and the “reduction in plasma glucose” value (male db/db mice [1]; 3 mg/kg + 30 mg/kg sitagliptin) was 5.6%. For the same compound, the “reduction in plasma glucose” value (male db/db mice [1]; 30 mg/kg + 30 mg/kg sitagliptin) was 15%, the “reduction in plasma glucose” value (male db/db mice [1]; 100 mg/kg + 30 mg/kg sitagliptin) was 42.3% and the “reduction of the elevated blood glucose levels” value (male db/db mice [1]; single oral administration, 3-100 mg/kg in combination with 30 mg/kg sitagliptin, compared to sitagliptin alone or vehicle, FIG. 2) was “dose-dependent reduction of the elevated blood glucose levels”. The “blood glucose lowering compared with exenatide” value (diabetic db/db mice [4]; 3 hours after dosing, oral + 30 mg/kg sitagliptin versus single subcutaneous 0.02 mg/kg exenatide) was “reduces blood glucose levels more than a single subcutaneous injection of 0.02 mg/kg exenatide”, the “plasma GLP-1 level, ASBTI in combination with sitagliptin” value (plasma GLP-1 level; FIG. 6, 7) was “dose-dependent increase in plasma GLP-1 level” and the “plasma GLP-1 level, ASBTI in combination with sitagliptin” value (plasma GLP-1 level; [5]) was “dose-dependent increase in plasma GLP-1 level; also recorded: elevation in GLP-1 levels in a dose-dependent manner”. The “plasma GLP-1 level, ASBTI alone” value (plasma GLP-1 level; FIG. 6, 7) was “dose-dependent increase in plasma GLP-1 level” and the “plasma GLP-1 level, ASBTI alone” value (plasma GLP-1 level; [5]) was “dose-dependent increase in plasma GLP-1 level; also recorded: elevation in GLP-1 levels in a dose-dependent manner”.

With `CCCC[C@]1(CC)CS(=O)(=O)c2cc(OC)c(OC)cc2[C@@H](c2ccccc2)N1` (relative stereo) [Compound 100A, (−)-(3R,5R)-trans-3-butyl-3-ethyl-2,3,4,5-tetrahydro-7,8-dimethoxy-5-phenyl-1,4-benzothiazepine1,1-dioxide] the “reduction of plasma glucose levels” value (diabetic db/db mice [4]; 3 hours post-dose, oral 10 mg/kg + 30 mg/kg sitagliptin) was 35%.

Reference: patent US10555950B2, “Bile acid recycling inhibitors for treatment of obesity and diabetes” (Satiogen Pharmaceuticals, Inc., priority 2008, dated 2020)
